# Test results published in patent US6730697B2, “Dihydrothiaphenanthrenecarbonylguanidines: composition, process of making, and use as medicament or diagnostic aid” (Aventis Pharma Deutschland GmbH, priority 2002, dated 2004).
# Structures can show the parent of a compound that is named as a salt.
# Target: T1, human NHE-1 (Homo sapiens, UniProt P19634)
# T1 construct: expressed in transfected cells; host or cells: LAP-1 cells (parental line without endogenous NHE activity, from Prof. Pouysségur, Nice), G418-selected transfectants
# T1 sequence (P19634 whole entry): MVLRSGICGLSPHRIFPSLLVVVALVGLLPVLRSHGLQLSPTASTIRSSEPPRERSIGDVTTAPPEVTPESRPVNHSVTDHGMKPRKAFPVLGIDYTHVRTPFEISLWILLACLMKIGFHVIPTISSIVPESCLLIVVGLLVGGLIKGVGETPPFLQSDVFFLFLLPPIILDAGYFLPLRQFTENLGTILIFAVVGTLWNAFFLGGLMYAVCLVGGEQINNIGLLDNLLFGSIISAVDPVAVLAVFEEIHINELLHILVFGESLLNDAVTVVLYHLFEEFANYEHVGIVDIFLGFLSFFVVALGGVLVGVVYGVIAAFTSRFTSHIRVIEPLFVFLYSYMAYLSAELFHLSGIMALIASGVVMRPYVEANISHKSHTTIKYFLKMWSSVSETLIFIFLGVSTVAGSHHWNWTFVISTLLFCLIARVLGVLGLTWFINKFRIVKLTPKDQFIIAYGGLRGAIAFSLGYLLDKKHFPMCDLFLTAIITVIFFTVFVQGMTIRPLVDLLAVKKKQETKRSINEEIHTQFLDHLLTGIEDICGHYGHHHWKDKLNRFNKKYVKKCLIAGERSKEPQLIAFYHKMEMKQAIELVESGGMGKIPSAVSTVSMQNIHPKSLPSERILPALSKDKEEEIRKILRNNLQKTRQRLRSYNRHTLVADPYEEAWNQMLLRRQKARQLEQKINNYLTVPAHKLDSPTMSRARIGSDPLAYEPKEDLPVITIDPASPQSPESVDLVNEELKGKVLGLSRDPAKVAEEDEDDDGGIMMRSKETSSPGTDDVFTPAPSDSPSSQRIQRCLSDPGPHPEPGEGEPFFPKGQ
# Test: FLIPR assay for NHE-1 inhibition by recovery of pHi in transfected cell lines
# Type: cell-based
# Conditions: transfected LAP-1 cell line expressing human NHE-1, BCECF fluorescence
# Description: The NHE-1 inhibition IC50 [nM] was determined as follows: FLIPR Assay for Determining NHE-1 Inhibitors by Measurement of the Recovery in pHi in Transfected Cell Lines Which Express Human NHE-1 The assay is carried out in an FLIPR (fluorometric imaging plate reader) with black-walled 96-well microtiter plates with clear bases. […] [The growth medium for the transfected cells (Iscove +10% fetal calf serum) additionally contains G418 as selection antibiotic in order to ensure the presence of the transfected sequences.] The actual assay starts with the removal of the growth medium and addition of 100 μl of loading buffer per well (5 μM BCECF-AM [2′, 7′-bis(carboxyethyl)-5-(and-6)-carboxyfluorescein, acetoxymethyl ester] in 20 mM NH4Cl, 115 mM choline chloride, 1 mM MgCl2, 1 mM CaCl2, 5 mM KCl, 20 mM HEPES, 5 mM glucose; pH 7.4 [adjusted with KOH]). The cells are then incubated at 37° C. for 20 minutes. This incubation leads to loading of the cells with the fluorescent dye whose fluorescence intensity depends on pHi, and with NH4Cl which makes the cells slightly alkaline. [The nonfluorescent dye precursor BCECF-AM is, as ester, membrane-permeable. The actual dye BCECF is not membrane-permeable but is liberated inside cells by esterases.] After this incubation for 20 minutes, the loading buffer which contains NH4Cl and free BCECF-AM is removed by washing three times in a cell washer (Tecan Columbus) with in each case 400 μl of washing buffer (133.8 mM choline chloride, 4.7 mM KCl, 1.25 mM MgCl2, 1.25 mM CaCl2, 0.97 mM K2HPO4, 0.23 mM KH2PO4, 5 mM HEPES, 5 mM glucose; pH 7.4 [adjusted with KOH]). The residual volume remaining in the wells is 90 μl (50-125 μl possible). This washing step removes the free BCECF-AM and results, as a consequence of the removal of the external NH4^+ ions, in intracellular acidification (˜pHi 6.3-6.4). Since the equilibrium of intracellular NH4^+ with NH3 and H^+ is disturbed by the removal of the extracellular NH4^+ and by the subsequent instantaneous passage of the NH3 through the cell membrane, the washing process results in H^+ remaining inside the cells, which is the cause of the intracellular acidification. This may eventually lead to cell death if it persists long enough. It is important at this point that the washing buffer is sodium-free (<1 mM) because extracellular sodium ions would lead to an instantaneous recovery of the pHi through the activity of the cloned NHE isoforms. It is likewise important for all the buffers used (loading buffer, washing buffer, recovery buffer) not to contain any HCO3^− ions, because the presence of bicarbonate would lead to activation of interfering bicarbonate-dependent pHi regulatory systems present in the parental LAP-1 cell line. The microtiter plates with the acidified cells are then (up to 20 minutes after the acidification) transferred to the FLIPR. In the FLIPR, the intracellular fluorescent dye is excited by light with a wavelength of 488 nm generated by an argon laser, and the measured parameters (laser power, illumination time and aperture of the CCD camera incorporated in the FLIPR) are chosen so that the average fluorescence signal per well is between 30 000 and 35 000 relative fluorescence units. The actual measurement in the FLIPR starts with a photograph being taken by the CCD camera every two seconds under software control. After ten seconds, the recovery of the intracellular pH is initiated by adding 90 μl of recovery buffer (133.8 mM NaCl, 4.7 mM KCl, 1.25 mM MgCl2, 1.25 mM CaCl2, 0.97 mM K2HPO4, 0.23 mM KH2PO4, 10 mM HEPES, 5 mM glucose; pH 7.4 [adjusted with NaOH]) by means of the 96-well pipettor incorporated in the FLIPR. Positive control wells (100% NHE activity) are those to which pure recovery buffer is added, while negative controls (0% NHE activity) receive washing buffer. Recovery buffer with twice the concentration of test substance is added to all the other wells. Measurement in the FLIPR terminates after 60 measurements (two minutes). […]
row,SMILES,IC50 [nM]
1,"Cc1ccc2c(c1)CS(=O)(=O)c1cc(C(=O)NC(=N)N)c(C)cc1-2 [Example 11, N-(2,6-Dimethyl-9,9-dioxo-9,10-dihydro-9-thiaphenanthrene-7-carbonyl)-guanidinium Formate]",19.5
2,"Cc1cc2c(cc1C(=O)NC(=N)N)S(=O)(=O)Cc1ccc(Cl)cc1-2 [Example 7, N-(3-Chloro-6-methyl-9,9-dioxo-9,10-dihydro-9-thiaphenanthrene-7-carbonyl)guanidinium Formate]",11.7
3,"COc1ccc2c(c1)CS(=O)(=O)c1cc(C(=O)NC(=N)N)c(C)cc1-2 [Example 8, N-(2-Methoxy-6-methyl-9,9-dioxo-9,10-dihydro-9-thiaphenanthrene-7-carbonyl)guanidinium Formate]",10.2
4,"Cc1cc2c(cc1C(=O)NC(=N)N)S(=O)(=O)Cc1cc(Cl)ccc1-2 [Example 4, N-(2-Chloro-6-methyl-9,9-dioxo-9,10-dihydro-9-thiaphenanthrene-7-carbonyl)guanidinium Formate]",10.8
5,"Cc1ccc2c(c1)-c1cc(C)c(C(=O)NC(=N)N)cc1S(=O)(=O)C2 [Example 3, N-(3,6-Dimethyl-9,9-dioxo-9,10-dihydro-9-thiaphenanthrene-7-carbonyl)-guanidinium Formate]",8.6
6,"Cc1cc2c(cc1C(=O)NC(=N)N)S(=O)(=O)Cc1ccccc1-2 [Example 1, N-(6-Methyl-9,9-dioxo-9,10-dihydro-9-thiaphenanthrene-7-carbonyl)guanidinium Formate]",15.6
7,"Cc1cc2c(cc1C(=O)NC(=N)N)S(=O)(=O)Cc1cccc(C)c1-2 [Example 10, N-(4,6-Dimethyl-9,9-dioxo-9,10-dihydro-9-thiaphenanthrene-7-carbonyl)-guanidinium Formate]",67.7
8,"Cc1cc2c(cc1C(=O)NC(=N)N)S(=O)(=O)Cc1ccc(F)cc1-2 [Example 5, N-(3-Fluoro-6-methyl-9,9-dioxo-9,10-dihydro-9-thiaphenanthrene-7-carbonyl)guanidinium Formate]",15.6
9,"Cc1cc2c(cc1C(=O)NC(=N)N)S(=O)(=O)Cc1ccc3ccccc3c1-2 [Example 2, N-(2-Methyl-5,5-dioxo-5,6-dihydro-5-thiabenzo[c]phenanthrene-3-carbonyl)guanidinium Formate]",24.2
10,"Cc1cc2c(cc1C(=O)NC(=N)N)S(=O)(=O)Cc1c(F)cccc1-2 [Example 6, N-(1-Fluoro-6-methyl-9,9-dioxo-9,10-dihydro-9-thiaphenanthrene-7-carbonyl)guanidinium Formate]",16.5
11,"Cc1cc2c(cc1C(=O)NC(=N)N)S(=O)(=O)Cc1c(Cl)cccc1-2 [Example 9, N-(1-Chloro-6-methyl-9,9-dioxo-9,10-dihydro-9-thiaphenanthrene-7-carbonyl)guanidinium Formate]",13.9
